Measurements published in patent publication US20210130291A1, “METHODS FOR TREATING DIABETES USING VDAC1 INHIBITORS” (THE NATIONAL INSTITUTE FOR BIOTECHNOLOGY IN THE NEGEV LTD., priority 2016, published 2021).
“Also recorded” adds a separate entry of the source.

Experiments:
[1] = biological target: T1, plasma membrane targeted VDAC1 (plVDAC1) (Mus musculus, UniProt Q60932); experiment: ATP release and ATP content of INS-1 cells transfected with plasma membrane targeted VDAC1; assay type: cell-based; conditions: plVDAC1-transfected INS-1 cells, 1 h at 1 mM glucose; for ATP release (loss of cellular ATP): VDAC1-ab 10 nM, metformin, AKOS, VBIT-4 20 μM each (FIG. 4c)
T1 construct: expressed in transfected cells; host or cells: INS-1 832/13 cells (rat insulinoma), transient transfection; plasmid a gift from Dr. R. Buettner
Experimental: (§1) ATP release from isolated mouse or human islets or from INS-1 cells after transfection with mitochondrial targeted VDAC1 (mtVDAC1) or plasma membrane targeted VDAC1 (plVDAC1) plasmids was determined using a luminometric assay kit according to manufacturer's recommendation (Biovision). After incubation of islets (50/vial) or INS-1 cells for 60 min, an aliquot of the media was removed for subsequent measurements of released ATP. Then the islets or INS-1 cells were washed 3 times and the lysates were used for measurements of ATP and protein contents followed the protocol provided by the vendor.
INS-1 cells were transiently transfected with a plasmid encoding plasma membrane targeted VDAC1 (pVDAC1) as described in the Material and Method section herein above and in Example 3 (see also Buettner et al 2000. PNAS 97:3201-3206). After transfection (24-32 h and 2-4 h recovery in normal culture medium, RPMI 1640 with complete supplement) the INS-1 cells were washed followed by preincubation in SAB-buffer (See Material and Method above) containing 2.8 mM glucose. The final 1 h incubation was performed in SAB-buffer containing 1 mM glucose and the VDAC1 inhibitory compounds to be tested. At the end, the cells were lysed using lysis buffer, sonicated and the lysate as well as the incubation medium were analyzed for ATP content using a commercially available kit (Biovision, K354-100). Cellular protein content was analyzed by Pierce™ BCA protein assay kit (Thermo Scientific, USA).

db/db mice [2] = experiment: Daily i.p. injection of VBIT-4 in db/db and C57/BL mice (blood glucose, IPGTT); assay type: in vivo, mouse
Experimental: (§2) 5 weeks old db/db mice and control (C57/bl) (Janvier Laboratory, France), weighing 18-25 g, were used throughout the experiments. They were given a standard pellet diet (B&K) and tap water ad libitum. The experimental procedures were approved by the Ethics Committee for Animal Research at Lund University. Isolation of pancreatic islets was performed by retrograde injection of a collagenase solution via the bile-pancreatic duct and islets were then collected under a stereomicroscope at room temperature.
IPGTTs were performed in db/db and c57/bl mice after treatment with VDAC1 blocker (daily intraperitoneal injection with VBIT-4, […]) for 5 weeks. Prior to IPGTT test, the mice were fasted for 4 h. Glucose was dissolved in 0.9% NaCl and 2.0 g glucose/kg body weight was injected intraperitoneally. Serial blood sampling thereafter from vena saphena was performed at 0, 5, 15, 30 and 90 min as previously described elsewhere 35. Blood glucose was analyzed using glucose oxidase method and plasma insulin was analyzed by ELISA (Salehi, A. et al. 2008. PLoS ONE 3, e2165; Rosengren, A. H. et al. 2010. Science 327, 217-220). Total volume load was 0.3 ml. The Cumulative (area under the curve) changes in plasma glucose or insulin were calculated by subtracting the recorded values from basal (time 0).

db/db mice [3] = experiment: Oral (gavage) administration of VBIT-4 to db/db mice, blood glucose; assay type: in vivo, mouse
Experimental: Next, the effect of orally administered VBIT-4 on blood glucose in db/db mice was examined. VBIT-4 at the indicated doses or vehicle was administered by gavage to db/db mice from the age of 6-11 weeks. Blood was sampled and […] once a week. Blood glucose was measured by a handheld device ContourXt (Bayer) using blood glucose strips.

[4] = system: islets of diabetic db/db mice; experiment: ATP content, ATP release and GSIS in islets of diabetic db/db mice; assay type: cell-based, mouse
Experimental: as §2
Human pancreatic islets were collected under a stereomicroscope at room temperature and cultured at 5.5 or 20 mM glucose in the absence or presence of test agents for 72 h. Thereafter the islets were washed and preincubated for 30 min at 37° C. in Krebs Ringer bicarbonate buffer, pH 7.4, supplemented with N-2 hydroxyethylpiperazine-N′-2-ethanesulfonic acid (10 mM), 0.1% bovine serum albumin, and 1 mM glucose. Each incubation vial contained 12 islets in 1.0 ml KRB buffer solution and treated with 95% O2 and 5% CO2 to obtain constant pH and oxygenation. After preincubation, the buffer was changed to a medium containing either 1 mM or 16.7 mM glucose. The islets were then incubated for 1 h at 37° C. in a metabolic shaker (30 cycles per min). Immediately after incubation an aliquot of the medium was removed for analysis of insulin and the islets were incubated in acid-ethanol for insulin content determination by radioimmunoassay.
as §1

human islet cells = experiment: Cellular reductive capacity (MTS) in human islets; assay type: cell-based; conditions: VDAC1 antibody 10 nM
Experimental: The reductive capacity of cells was measured either on INS-1 cells or dispersed human islet cells when the INS-1 cells or islets were subjected to 5 or 20 mM glucose for 72 h in the absence or presence of test agents or after down-regulation of VDAC1 and VDAC2 as described elsewhere (35, 40). Measurement of reductive capacity was performed using the MTS reagent kit according to the manufacturer's instructions (Promega). Apoptosis was measured with the Cell Death Kit (Roche Diagnostics), which quantifies the appearance of cytosolic nucleosomes.

[5] = system: VDAC1 in islets from T2D donors; experiment: VDAC1 expression and localization in islets of T2D donors with documented metformin therapy; set-up: species or system human
Experimental: Donors were grouped according to HbA1c i.e. less than 6% (ND), between 6% and 6.5% (IGT), higher than 6.5% or history of diabetes (T2D). […] The islets were then hand-picked under stereomicroscope prior to use. […] Total RNA from handpicked mouse islets, human donor islets (Diabetic and non-diabetic) or [MUT] cells were extracted using RNAeasy (Qiagen, Hilden, Germany). […] Concentration and purity of total RNA was measured with a NanoDrop ND-1000 spectrophotometer (A260/A280>1.9 and A260/A230>1.4) (NanoDrop Technologies, Wilmington, Del.) and RNA Quality Indicator (RQI) higher than 8.0 (Experion Automated Electrophoresis, Bio-Rad, USA) was considered to be high-quality total RNA preparations. […] The qPCR was carried out as follows: 50° C. for 2 minutes, 95° C. for 10 minutes, 40 cycles of 95° C. for 15 seconds, and 60° C. for 1 minute. […] Isolated human or mouse islets as well as INS-1 cells were seeded on the glass-bottom dish cultured overnight. […] Primary antibodies against mouse VDAC1 (Abcam), goat VDAC2 (Abcam) and Guinea pig insulin (Eurodiagnostica) were diluted in blocking buffer and incubated overnight at 4° C. Immunoreactivity was quantified using fluorescently labeled secondary antibodies (1:200) and visualized by confocal microscopy (Carl Zeiss, Germany). The ratio is calculated by mean intensity of plasma membrane to mean intensity in cytosol, according to the formula:

db/db mice [6] = conditions: Cao K, et al. 2014; cited from earlier work
TXNIP = conditions: insulin-secreting cells and endothelial cells (Shaked 2011; Li 2015); cited from earlier work
VDAC1 = VDAC1 (Rattus norvegicus, UniProt Q9Z2L0); experiment: Channel conductance of VDAC1 reconstituted in planar lipid bilayer
Sequence of VDAC1 (Q9Z2L0 whole entry): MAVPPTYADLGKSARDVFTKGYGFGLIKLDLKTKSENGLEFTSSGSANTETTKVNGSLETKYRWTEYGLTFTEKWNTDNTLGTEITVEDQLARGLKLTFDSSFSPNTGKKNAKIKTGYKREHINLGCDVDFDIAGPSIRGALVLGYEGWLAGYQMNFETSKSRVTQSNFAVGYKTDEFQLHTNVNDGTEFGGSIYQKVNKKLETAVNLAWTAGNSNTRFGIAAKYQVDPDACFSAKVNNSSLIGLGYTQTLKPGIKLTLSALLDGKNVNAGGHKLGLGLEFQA

T1 sequence (Q60932 whole entry): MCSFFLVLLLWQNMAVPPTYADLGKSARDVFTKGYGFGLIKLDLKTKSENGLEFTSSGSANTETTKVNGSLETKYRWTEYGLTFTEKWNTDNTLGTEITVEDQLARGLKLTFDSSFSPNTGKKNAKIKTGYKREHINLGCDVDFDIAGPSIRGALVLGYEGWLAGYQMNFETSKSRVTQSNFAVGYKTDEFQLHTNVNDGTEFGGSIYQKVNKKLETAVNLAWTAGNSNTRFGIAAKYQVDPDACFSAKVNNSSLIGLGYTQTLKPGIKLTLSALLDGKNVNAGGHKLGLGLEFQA

O=C(CC(CO)N1CCN(c2ccc(OC(F)(F)F)cc2)CC1)Nc1ccc(Cl)cc1 (racemic) [VBIT-4, N-(4-chlorophenyl)-4-hydroxy-3-(4-(4-(trifluoromethoxy)phenyl)-piperazin-1-yl)butanamide]
ATP release ([1]; racemate and enantiomers (FIG. 9a), listed as racemic VBIT-4): efficiently inhibit ATP release; also recorded: no discernible difference
cellular ATP content ([1]; racemate and enantiomers (FIG. 9b), listed as racemic VBIT-4): increase cellular ATP content; also recorded: intermediate between that of its enantiomers 1 and 2
ATP release (loss of cellular ATP) [1]: prevented; also recorded: rapidly inhibited
effects in animals with severe diabetes (db/db mice [2]; 14-week old db/db animals with severe diabetes, data not shown): only marginal effects
effects in control mice (db/db mice [2]; C57/BL mice, daily i.p. VBIT-4 from age 6 to 11 weeks): no effects
glucose tolerance (IPGTT, 2 g/kg) (db/db mice [2]; db/db mice after 5 weeks VBIT-4 i.p. (FIG. 7g, 7h)): markedly improved
GSIS in vivo and in isolated islets (db/db mice [2]; db/db mice after 5 weeks VBIT-4 i.p. (FIG. 7i, 7k, 7l)): markedly improved
blood glucose concentrations upon VBIT-4 cessation (db/db mice [2]; db/db mice followed after 5 weeks treatment (FIG. 7f)): rose gradually over several weeks
development of hyperglycemia (blood glucose) (db/db mice [2]; db/db mice, daily i.p. 25 mg/kg from age 6 to 11 weeks, vs vehicle (FIG. 7f)): prevented the development of the severe hyperglycemia
water consumption and urine production (db/db mice [2]; db/db mice, early administration, data not shown): prevented increases in water consumption and urine production
blood glucose (db/db mice [3]; daily gavage for 5 weeks, age 6-11 weeks (FIG. 8)): reduced blood glucose
reduction of blood glucose concentration (db/db mice [3]; gavage, 10 mg/Kg body weight, 5 weeks): the reduction was significant along the entire trail period

CN(C)C(=N)N=C(N)N [metformin]
ATP release (loss of cellular ATP) [1]: prevented; also recorded: rapidly inhibited
insulin secretion in low glucose ([4]; islets from hyperglycemic db/db mice (FIG. 6c)): no effect
cellular ATP levels ([4]; islets from hyperglycemic db/db mice, acute addition 1 h, VDAC1 antibody 10 nM, metformin 20 μM (FIG. 6a)): increased its cellular levels
ATP release ([4]; islets from hyperglycemic db/db mice, acute addition 1 h, VDAC1 antibody 10 nM, metformin 20 μM (FIG. 6b)): reduced ATP release
insulin secretion at 16.7 mM glucose ([4]; islets from hyperglycemic db/db mice, compared to control (FIG. 6c)): increased insulin secretion
cellular reductive capacity (metabolism) in T2D islets (human islet cells; metformin 20 μM (FIG. 6h)): markedly improved metabolism
cellular reductive capacity after culture at 5 mM glucose (human islet cells; human islets, metformin 20 μM (FIG. 6g)): no effect
islet VDAC1 mRNA ([5]; islets from T2D donors with documented metformin therapy (n=4)): did not display elevated VDAC1 mRNA
VDAC1 localization in β-cells ([5]; single examined T2D donor with documented metformin therapy (FIG. 3a, 3b)): remained intracellular
severity of hyperglycemia at onset of the disease (db/db mice [6]): attenuates the severity of hyperglycemia
TXNIP activation by high glucose concentrations (TXNIP): inhibits TXNIP activation
conductance of VDAC1 reconstituted into a planar lipid bilayer (VDAC1; metformin 30 μM, 10-30 min after addition (FIG. 4g)): blocks conductance
inhibition at 30 µM (VDAC1; read-out: inhibition of channel conductance): 50%
